Assay results reported in patent US7919504B2, “Thiadiazole modulators of PKB” (Amgen Inc., priority 2007, dated 2011).
Counter-ions that a name gives are not always drawn.

molecular target: T1, PKBα (Homo sapiens, UniProt P31749); test: PKB kinase assay (P33-labeled ATP, synthetic peptide substrate, filter plate capture); type: biochemical; details: with respect to PKBα
T1 construct: the full length PKBα and a kinase domain of PKBα with pleckstrin domain (amino acids 1-117) deleted
Source text: The kinase assay for evaluating PKB activity comprises active PKB enzymes, a PKB specific substrate, and P^33-labeled ATP. Two form of PKBα enzymes were used, the full length PKBα and a kinase domain of PKBα with pleckstrin domain (amino acids 1-117) deleted. Both PKB enzymes were obtained from Upstate cell signaling solutions (Cat. #14-276 and 14-341). The PKB substrate used is a synthetic peptide (ARKRERTYSFGHHA (SEQ ID NO: 1)) as described in Obata et al., J. Biol. Chem. 275 (46), 36108-36115 (2000). The phosphorylated substrate was captured by a phosphocellulose membrane filter plate (MILLIPORE) and measured by a Wallac Microbeta liquid scintillation counter (Perkin Elmer). Table 1 provides the IC50 values obtained for each of the examples with respect to PKBα.

T1 sequence (P31749 118-480 limits assumed): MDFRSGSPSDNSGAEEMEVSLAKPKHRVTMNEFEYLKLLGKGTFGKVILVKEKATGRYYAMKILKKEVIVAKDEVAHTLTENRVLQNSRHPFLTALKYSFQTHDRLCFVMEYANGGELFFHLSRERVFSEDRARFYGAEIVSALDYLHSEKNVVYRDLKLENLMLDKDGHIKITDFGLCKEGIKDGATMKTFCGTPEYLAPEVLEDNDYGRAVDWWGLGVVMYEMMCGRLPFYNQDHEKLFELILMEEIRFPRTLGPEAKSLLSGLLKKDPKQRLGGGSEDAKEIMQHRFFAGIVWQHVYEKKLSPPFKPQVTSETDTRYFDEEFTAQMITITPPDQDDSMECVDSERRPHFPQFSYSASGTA

Row | IC50 [nM] | SMILES
1 | 50 to 1000 | O[C@H]1CCCC[C@H]1CNc1nnc(-c2ccc3cnccc3c2)s1 [Example 21, (1S,2S)-2-((5-(Isoquinolin-6-yl)-1,3,4-thiadiazol-2-ylamino)methyl)cyclohexanol]
2 | 1000 to 10000 | CC(C)=C1C(=O)Nc2ccc(-c3nnc(NC[C@@H](N)Cc4ccc(C(F)(F)F)cc4)s3)cc21 [Example 6, 5-(5-((S)-2-Amino-3-(4-(trifluoromethyl)phenyl)propylamino)-1,3,4-thiadiazol-2-yl)-3-(propan-2-ylidene)indolin-2-one]
3 | 50 to 1000 | CC1(C)C2CC[C@H](CNc3nnc(-c4ccc5cnccc5c4)s3)C1C2 (stereo partly drawn) [Example 15, N-(((2S)-6,6-Dimethylbicyclo[3.1.1]heptan-2-yl)methyl)-5-(isoquinolin-6-yl)-1,3,4-thiadiazol-2-amine]
4 | 1000 to 10000 | CCC(O)CNc1nnc(-c2ccc3cnccc3c2)s1 (racemic) [Example 23, (±)-1-(5-(Isoquinolin-6-yl)-1,3,4-thiadiazol-2-ylamino)butan-2-ol]
5 | 50 to 1000 | N[C@H](CCc1nnc(-c2ccc3c(c2)CC(=O)N3)s1)Cc1ccc(C(F)(F)F)nc1 [Example 47, 5-(5-((R)-3-Amino-4-(6-(trifluoromethyl)pyridin-3-yl)butyl)-1,3,4-thiadiazol-2-yl)indolin-2-one trifluoroacetate]
6 | < 50 | N[C@H](CNc1nnc(-c2ccc3cnsc3c2)s1)Cc1ccc(C(F)(F)F)cc1 [Example 42, N-((S)-2-Amino-3-(4-(trifluoromethyl)phenyl)propyl)-5-(benzo[d]isothiazol-6-yl)-1,3,4-thiadiazol-2-amine]
7 | 1000 to 10000 | CC1(C)C2CCC1(C)C(Nc1nnc(-c3ccc4cnccc4c3)s1)C2 (centres unmarked) [Example 20, 5-(Isoquinolin-6-yl)-N-(1,7,7-trimethylbicyclo[2.2.1]heptan-2-yl)-1,3,4-thiadiazol-2-amine]
8 | < 50 | N[C@H](CNc1nnc(-c2cc3ccncc3s2)s1)Cc1ccc(C(F)(F)F)cc1 [Example 10, N-((S)-2-Amino-3-(4-(trifluoromethyl)phenyl)propyl)-5-(thieno[2,3-c]pyridin-2-yl)-1,3,4-thiadiazol-2-amine]
9 | 50 to 1000 | O=C(Nc1nnc(-c2ccc3cnccc3c2)s1)[C@@H]1NCC[C@@H]1c1ccccc1 (racemic) [Example 26, (±)-cis-N-(5-(Isoquinolin-6-yl)-1,3,4-thiadiazol-2-yl)-3-phenylpyrrolidine-2-carboxamide]
10 | < 50 | N[C@H](CNc1nnc(-c2ccc3cnc(F)cc3c2)s1)Cc1ccc(C(F)(F)F)nc1 [Example 44, N-((S)-2-Amino-3-(6-(trifluoromethyl)pyridin-3-yl)propyl)-5-(3-fluoroisoquinolin-6-yl)-1,3,4-thiadiazol-2-amine trifluoroacetate]
11 | < 50 | N[C@H](CNc1nnc(-c2ccc3cnc(F)cc3c2)s1)Cc1ccc(C(F)(F)F)cc1 [Example 43, N-((S)-2-Amino-3-(4-(trifluoromethyl)phenyl)propyl)-5-(3-fluoroisoquinolin-6-yl)-1,3,4-thiadiazol-2-amine trifluoroacetate]
